In PubChem BioAssay (NCI):
Where “and” joins values, the source holds several entries; their conditions need not be identical. Equal values may be shown once.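 Method: 48-hour compound exposure of cells in 96-well plates, five concentrations, linear interpolation of endpoints. Here, GI50 denotes the concentration required for 50% inhibition of growth. TGI: concentration producing complete growth inhibition.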

Assays:
Assay in all cases: NCI tumour cell line growth inhibition, 48 h
[1] = test system: MOLT-4 leukemia
[2] = test system: HL-60(TB) leukemia
[3] = test system: IGROV1 ovarian
[4] = test system: SK-OV-3 ovarian
[5] = test system: A549 NSCLC
[6] = test system: SN12C renal
[7] = test system: OVCAR-5 ovarian
[8] = test system: HS 578T breast
[9] = test system: NCI-H226 lung
[10] = test system: UO-31 renal

C=C1C(=O)O[C@H]2[C@H](OC(C)=O)[C@@H](C)CCC/C(C)=C/CC[C@@]3(C)O[C@@H]3C[C@@H]12
TGI [1]: 10.1 µM
TGI [2]: 2.38 µM
TGI [3]: 18.4 µM
TGI [4]: 30.5 µM
TGI [5]: 34.6 µM
TGI [6]: 4.05 µM
TGI [7]: 27.6 µM
TGI [8]: 13.2 µM
TGI [9]: 3.32 µM
TGI [10]: 7.51 µM

O=c1oc2cc(N=Cc3ccc4c(c3)OCO4)ccc2c2ccccc12
TGI [1]: > 100 µM
TGI [2]: > 100 µM
TGI [3]: > 100 µM
TGI [4]: > 100 µM
TGI [5]: > 100 µM
TGI [6]: > 100 µM
TGI [7]: > 100 µM
TGI [8]: > 100 µM
TGI [9]: > 100 µM
TGI [10]: > 100 µM

OC(CNCC1CCCO1)Cn1c2ccc(Cl)cc2c2cc(Cl)ccc21 (configuration not stated)
GI50 [1]: 2.09 µM
TGI [1]: 4.65 µM
GI50 [2]: 2.3 µM
TGI [2]: 5.51 µM
GI50 [3]: 2.05 µM
TGI [3]: 4.03 µM
GI50 [4]: 2.08 µM
TGI [4]: 4.19 µM
GI50 [5]: 1.87 µM
TGI [5]: 3.69 µM
GI50 [6]: 2.06 µM
TGI [6]: 4.58 µM
GI50 [7]: 1.89 µM
TGI [7]: 3.61 µM
GI50 [8]: 2.14 µM
TGI [8]: 6.93 µM
GI50 [9]: 2.42 µM
TGI [9]: 8.1 µM
GI50 [10]: 1.61 µM
TGI [10]: 3.15 µM

Oc1ccccc1C=Nc1nc(SCc2ccccc2)nc2[nH]ncc12
GI50 [1]: 24.8 µM
TGI [1]: > 100 µM
GI50 [2]: 26.1 µM
TGI [2]: 95.7 µM
GI50 [3]: > 100 µM
TGI [3]: > 100 µM
GI50 [4]: > 100 µM
TGI [4]: > 100 µM
GI50 [5]: 65.2 µM
TGI [5]: > 100 µM
GI50 [6]: > 100 µM
TGI [6]: > 100 µM
GI50 [7]: > 100 µM
TGI [7]: > 100 µM
GI50 [8]: 11 µM
TGI [8]: 44.7 µM
GI50 [9]: 54.3 µM
TGI [9]: > 100 µM
GI50 [10]: 94.8 µM
TGI [10]: > 100 µM

CCN1Cc2c(ccc(F)c2C#N)O[C@@H](C)CNC(=O)c2c(N)nn3ccc1nc23
GI50 [1]: 2.75 µM
TGI [1]: 69.2 µM
GI50 [2]: 4.37 µM
TGI [2]: 40 µM
GI50 [3]: 0.682 µM
TGI [3]: 13 µM
GI50 [4]: 1.66 µM
TGI [4]: 15.3 µM
GI50 [5]: 2.85 µM
TGI [5]: 24 µM
GI50 [6]: 1.35 µM
TGI [6]: 18.5 µM
GI50 [7]: 2.87 µM
TGI [7]: 19.8 µM
GI50 [8]: 0.652 µM
TGI [8]: 4.71 µM
GI50 [9]: 3.79 µM
TGI [9]: 18.6 µM
GI50 [10]: 1.14 µM
TGI [10]: 6.53 µM

CCN(CC)CCn1c2ccccc2c(=O)c2c(O)ccc(O)c21
TGI [1]: 69.3 µM
TGI [2]: 46.8 µM
TGI [3]: 66.3 µM
TGI [4]: > 81 µM
TGI [5]: > 100 µM
TGI [6]: 45.6 µM
TGI [7]: > 78.5 µM
TGI [8]: 53.5 µM
TGI [9]: > 56.2 µM
TGI [10]: 63.8 µM

COc1ccc(/C(=N\O)c2cc(C)c(OC)c(C)c2)cc1O
GI50 [1]: 0.052 µM
TGI [1]: > 100 µM
GI50 [2]: 0.011 µM
TGI [2]: 0.0607 µM
GI50 [3]: 0.0134 µM
TGI [3]: > 100 µM
GI50 [4]: 0.0166 µM
TGI [4]: > 100 µM
GI50 [5]: 0.039 µM
TGI [5]: > 100 µM
GI50 [6]: 0.0484 µM
TGI [6]: > 100 µM
GI50 [7]: 0.0631 µM
TGI [7]: > 100 µM
GI50 [8]: 0.0198 µM
TGI [8]: > 100 µM
GI50 [9]: 11.2 µM
TGI [9]: > 100 µM
GI50 [10]: 0.0709 µM
TGI [10]: > 100 µM

COc1cc2c(cc1OCCCCCOc1ccc(-n3c(C)nc4ccccc4c3=O)cc1)N=C[C@@H]1CCCN1C2=O
GI50 [1]: 0.196 µM
TGI [1]: 0.5 µM
GI50 [2]: 0.34 µM
TGI [2]: 1.3 µM
GI50 [3]: 0.182 µM
TGI [3]: 0.64 µM
GI50 [4]: 0.41 µM
TGI [4]: 1.89 µM
GI50 [5]: 0.276 µM
TGI [5]: 0.982 µM
GI50 [6]: 0.264 µM
TGI [6]: 3.38 µM
GI50 [7]: 0.281 µM
TGI [7]: 0.678 µM
GI50 [8]: 0.232 µM
TGI [8]: 0.88 µM
GI50 [9]: 0.214 µM
TGI [9]: 0.466 µM
GI50 [10]: 0.336 µM
TGI [10]: 1.71 µM

O=C(O)C1C(C(=O)O)C23CC2(C(=O)O)C2(C(=O)O)CCC3=C3CCCC312 (configuration not stated)
TGI [1]: 30.2 µM
TGI [2]: 18.3 µM
TGI [3]: 51.6 µM
TGI [4]: 36.6 µM
TGI [5]: > 100 µM
TGI [6]: 36.4 µM
TGI [7]: 47.3 µM
TGI [8]: 7.8 µM
TGI [9]: 27.5 µM
TGI [10]: 33.2 µM

CC1(O)CC(c2nc(-c3ccc4ccc(-c5ccccc5)nc4c3)c3c(N)nccn23)C1 (configuration not stated)
GI50 [1]: 7.16 µM and 3.72 µM
TGI [1]: > 80.1 µM
TGI [2]: 25.8 µM and > 10 µM
GI50 [3]: 19.1 µM and > 10 µM
TGI [3]: > 100 µM
GI50 [4]: 10.4 µM and 9.84 µM
TGI [4]: > 100 µM
GI50 [5]: 10.5 µM and > 10 µM
TGI [5]: > 100 µM
GI50 [6]: 9.64 µM and > 10 µM
TGI [6]: > 80.9 µM
GI50 [7]: 12.1 µM and > 10 µM
TGI [7]: 44.7 µM and > 10 µM
GI50 [8]: 13.8 µM and 4.28 µM
TGI [8]: 51.9 µM and > 10 µM
GI50 [9]: 3.72 µM and 3.12 µM
TGI [9]: 49.7 µM and > 10 µM
GI50 [10]: 3.6 µM and 1.65 µM
TGI [10]: > 76.3 µM

COc1ccc(NC(=O)COCCOCCNC[C@@H]2C(=O)O[C@H]3[C@H]2CC/C(COC(=O)OC/C2=C/CC[C@@]4(C)O[C@H]4[C@H]4OC(=O)[C@@H](CN(C)C)[C@@H]4CC2)=C\CC[C@@]2(C)O[C@@H]32)c(O)c1C(N)=O
GI50 [1]: 1.63 µM
TGI [1]: 6 µM
GI50 [2]: 0.77 µM
TGI [2]: 1.91 µM
GI50 [3]: 4.68 µM
TGI [3]: 11.8 µM
GI50 [4]: 40.6 µM
TGI [4]: > 50 µM
GI50 [5]: 31.8 µM
TGI [5]: > 50 µM
GI50 [6]: 7.74 µM
TGI [6]: 17.5 µM
GI50 [7]: 8.9 µM
TGI [7]: 17.4 µM
GI50 [8]: 14.7 µM
TGI [8]: > 50 µM
GI50 [9]: 8.33 µM
TGI [9]: 16.2 µM
GI50 [10]: 2.51 µM
TGI [10]: 9.13 µM

O=C1C=CC[C@H](/C=C/c2ccccc2)O1
TGI [1]: > 100 µM
TGI [2]: > 34 µM
GI50 [3]: 5.44 µM
TGI [3]: 26.5 µM
GI50 [4]: 5.54 µM
TGI [4]: 99.4 µM
GI50 [5]: 3.56 µM
TGI [5]: > 100 µM
GI50 [6]: 3.55 µM
TGI [6]: 17.9 µM
GI50 [7]: 1.92 µM
TGI [7]: 10.4 µM
GI50 [8]: 3.15 µM
TGI [8]: 30.4 µM
GI50 [9]: 0.787 µM
TGI [9]: 4.31 µM
GI50 [10]: 3.89 µM
TGI [10]: 8.99 µM
